# Results reported in patent publication US20210038579A1, “Treatment Of Patients With Classic Fabry Disease” (Amicus Therapeutics, Inc., priority 2018, published 2021).
# Changes are numbered by the printed parent chain.
# What was measured:
# Test in all cases: HEK assay: α-Gal A activity in HEK-293 cell lysate with migalastat
# Type in all cases: cell-based
# [1] = biological target: T1, α-Gal A mutant form p.Asp244Asn (c.730 G > A) (Homo sapiens, UniProt P06280, D244N)
# T1 construct: expressed in transfected cells; host or cells: HEK-293
# T1 sequence (P06280 32-429 D244N): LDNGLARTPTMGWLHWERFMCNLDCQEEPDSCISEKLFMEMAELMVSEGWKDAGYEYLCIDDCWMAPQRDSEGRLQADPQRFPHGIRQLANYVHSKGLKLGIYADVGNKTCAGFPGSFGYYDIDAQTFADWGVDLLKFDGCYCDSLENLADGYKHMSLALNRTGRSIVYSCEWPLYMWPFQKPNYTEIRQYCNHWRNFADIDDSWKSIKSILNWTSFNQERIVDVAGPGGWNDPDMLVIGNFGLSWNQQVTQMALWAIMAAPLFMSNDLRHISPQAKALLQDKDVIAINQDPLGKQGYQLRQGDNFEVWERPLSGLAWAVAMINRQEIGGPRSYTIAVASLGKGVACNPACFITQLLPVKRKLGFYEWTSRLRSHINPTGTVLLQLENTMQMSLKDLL
# Procedure, shortened: (§1)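 Each disease-causing α-Gal A variant, expressed transiently in HEK-293 cells, was treated plus or minus migalastat from 17 nM up to 1 mM during 4 to 5 days; lysates were assayed for α-Gal A using 4-MU-α-Gal fluorescence or western blotting.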
# [2] = biological target: T2, α-Gal A mutant form p.Tyr216Cys (c.647 A > G) (Homo sapiens, UniProt P06280, Y216C)
# T2 construct: expressed in transfected cells; host or cells: HEK-293
# T2 sequence (P06280 32-429 Y216C): T1 sequence (P06280 32-429 D244N) with Y185C, N213D
# Procedure, shortened: as §1
# [3] = biological target: T3, α-Gal A mutant form p.Arg112His (c.335 G > A) (Homo sapiens, UniProt P06280, R112H)
# T3 construct: expressed in transfected cells; host or cells: HEK-293
# T3 sequence (P06280 32-429 R112H): T1 sequence (P06280 32-429 D244N) with R81H, N213D
# Procedure, shortened: as §1
# [4] = biological target: T4, α-Gal A mutant form p.Ile253Thr (c.758 T > C) (Homo sapiens, UniProt P06280, I253T)
# T4 construct: expressed in transfected cells; host or cells: HEK-293
# T4 sequence (P06280 32-429 I253T): T1 sequence (P06280 32-429 D244N) with N213D, I222T
# Procedure, shortened: as §1
# [5] = biological target: T5, α-Gal A mutant form p.Asp264Tyr (c.790 G > T) (Homo sapiens, UniProt P06280, D264Y)
# T5 construct: expressed in transfected cells; host or cells: HEK-293
# T5 sequence (P06280 32-429 D264Y): T1 sequence (P06280 32-429 D244N) with N213D, D233Y
# Procedure, shortened: as §1
# [6] = +10 μM migalastat, HEK-293 cell lysate, mean ± SEM, n = 20
# [7] = HEK293, 10 μM migalastat minus baseline, read-out: Absolute increase at 10 μM (% WT)
smiles,measurement,setting,value
OC[C@H]1NC[C@H](O)[C@@H](O)[C@H]1O [migalastat],α-Gal A activity at 10 μM (fold over baseline),[1]; 10 μM migalastat,1.58 fold over baseline
same,+Migalastat α-Gal A activity,[1]; [6],16321 ± 402 nmol/mg/h
same,+Migalastat α-Gal A activity % WT,[1]; [6],48.7 ± 1.7 % WT
same,activation at 10 µM,[1]; [7],17.8%
same,α-Gal A activity at 10 μM (fold over baseline),[2]; 10 μM migalastat,10.40 fold over baseline
same,+Migalastat α-Gal A activity,[2]; [6],7003 ± 305 nmol/mg/h
same,+Migalastat α-Gal A activity % WT,[2]; [6],20.7 ± 0.8 % WT
same,activation at 10 µM,[2]; [7],18.7%
same,α-Gal A activity at 10 μM (fold over baseline),[3]; 10 μM migalastat,6.61 fold over baseline
same,+Migalastat α-Gal A activity,[3]; [6],5583 ± 215 nmol/mg/h
same,+Migalastat α-Gal A activity % WT,[3]; [6],17.4 ± 0.8 % WT
same,activation at 10 µM,[3]; [7],14.8%
same,α-Gal A activity at 10 μM (fold over baseline),[4]; 10 μM migalastat,2.07 fold over baseline
same,+Migalastat α-Gal A activity,[4]; [6],23417 ± 1077 nmol/mg/h
same,+Migalastat α-Gal A activity % WT,[4]; [6],80.2 ± 5.9 % WT
same,activation at 10 µM,[4]; [7],41.3%
same,α-Gal A activity at 10 μM (fold over baseline),[5]; 10 μM migalastat,12.89 fold over baseline
same,+Migalastat α-Gal A activity,[5]; [6],1842 ± 100 nmol/mg/h
same,+Migalastat α-Gal A activity % WT,[5]; [6],6.2 ± 0.3 % WT
same,activation at 10 µM,[5]; [7],5.7%
